Test results as given in paper PMC12889028, “Discovery and biological evaluation of novel N-aryl-N′-methylbenzodrazides against Schistosoma japonicum in vitro and in vivo” (Microbiology Spectrum, 2025).
Read-outs that look alike come from different tables or passages of the source.

Key:
[1] = tested on: MCF-7 (human breast cancer) cells; test: Cytotoxicity MTT assay, MCF-7; type: cell-based
Experimental: (§1) The cytotoxicity of compounds 5, 18, and 41 against human liver cancer (HepG2) and human breast cancer (MCF-7) cell lines in vitro was evaluated using the MTT assay, with cisplatin as a positive control. Cells were plated into 96-well plates and incubated in 100 μL of Dulbecco’s modified Eagle’s medium for 24 h. Test compounds at specified final concentrations were then added to the culture medium. After 48 h incubation, MTT dye (10 μL, 0.5 mg/mL) was added, and cells were incubated for an additional 4 h at 37°C in 5% CO2. Formazan crystals were dissolved in 100 μL DMSO per well, and absorbance at 570 nm (OD570) was measured using an ELx800 microplate reader (Bio-Tek, Winooski, VT, USA) with background subtraction. Cytotoxicity was expressed as IC50 (the concentration causing 50% reduction in cell growth compared to untreated controls). Experiments were performed in triplicate, with results presented as mean ± standard deviation.

[2] = tested on: HepG2 (human liver cancer) cells; test: Cytotoxicity MTT assay, HepG2; type: cell-based
Experimental: as §1

[3] = tested on: adult worms of S. japonicum (Chinese strain); test: microbe, parasite or virus in culture; conditions: for mortality at 100 µM / LC50: Schistosoma japonicum; for LC50: read-out: LC50 (72 h)
Experimental: S. japonicum cercariae (Chinese strain) were acquired from infected Oncomelania hupensis snails (Wuxi Insect Vector Biology Co., Ltd., China) ([28]). ICR mice (6–8 weeks, 22–25 g; Hunan SJA Laboratory Animal Co., Ltd., China) were percutaneously infected via abdominal exposure to 60 ± 5 cercariae. Adult schistosomes were perfused from the hepatic portal system at 35 dpi using a modified Duvall and DeWitt method ([29]). Animals were housed under controlled conditions (22°C ± 1°C, 12 h light/dark cycle) with ad libitum access to feed and water.
Adult S. japonicum worms isolated from ICR mice were maintained in sterile culture medium (2.0 mL) comprising 77% RPMI 1640 (Lanzhou Bailing Biotech Co., Ltd.; pH 7.5, HEPES-buffered), 20% heat-inactivated fetal bovine serum (Lanzhou Minhai Bio-Engineering Co., Ltd.), and 3% penicillin-streptomycin (100×; 10,000 U/mL penicillin, 10,000 μg/mL streptomycin; New Cell & Molecular Biotech Co., Ltd., China). Incubation was performed at 37°C under 5% CO2. Test compounds were dissolved in DMSO as 0.1 M stock solutions; 2.0 μL aliquots were added to worm-containing media (final concentration: 100 μM in 0.1% DMSO). Negative controls received equivalent volumes of vehicle (0.1% DMSO in RPMI 1640). Parasite viability (motor activity, tegumental integrity, survival) was assessed every 12 h for 72 h using an Olympus CKX53 inverted microscope (n ≥ 3 independent replicates).

[4] = tested on: S. japonicum (Chinese strain); test: In vivo antischistosomal assay in infected mice (worm burden, worm morphology, liver eggs); set-up: species or system Schistosoma japonicum in ICR mice; conditions: for Morphology of worms after treatment in vivo, adult stage / Worm burden reduction (WBR), Adult / Number of worms, Adult / Morphology of worms after treatment in vivo, juvenile stage / Worm burden reduction (WBR), Juvenile / Number of worms, Juvenile: mice, oral 100 mg/kg/day for 5 days; for Worm burden reduction (WBR), Adult: adult stage (from 35 dpi); for Worm burden reduction (WBR), Adult / Worm burden reduction (WBR), Juvenile: 100 mg/kg/day; for Number of worms, Adult: adult stage (treatment from 35 dpi, sacrifice 45 dpi); for Worm burden reduction (WBR), Juvenile: juvenile stage (from 9 dpi); for Number of worms, Juvenile: juvenile stage (treatment from 9 dpi, sacrifice 45 dpi); for Hepatic egg burden, adult-stage treatment / Hepatic egg burden, juvenile-stage treatment: mouse livers at 45 dpi; for Hepatic egg burden, adult-stage treatment: treatment in adult stage; for Hepatic egg burden, juvenile-stage treatment: treatment in juvenile stage
Experimental: (§2) Lead compounds 5, 18, and 41 (100 mg/kg) were orally administered once daily for 5 consecutive days to infected mice (n = 6/group) during two therapeutic windows: (i) Juvenile stage: treatment initiated at 9 dpi, terminal sacrifice at 45 dpi; (ii) adult stage: treatment initiated at 35 dpi, terminal sacrifice at 45 dpi. Positive controls received praziquantel (PZQ, 100 mg/kg/day ×5 days); negative controls received PBS (0.3 mL). Mice treated at 9 dpi were euthanized 36 days post-treatment; those treated at 35 dpi were euthanized 10 days post-treatment. Adult worms were perfused from the hepatic portal system and mesenteric veins. Parasite burden was quantified by worm enumeration, and worm burden reduction (WBR) was calculated:
WBR (%)=[1−Mean worm count (treated) / Mean worm count (control)]×100% .

[5] = Serum hepatic/renal function profiling of infected, treated mice; type: in vivo, ICR mice; conditions: for Serum GGT: normal range 1–15 U/L; for Serum TBIL: normal range 1.7–15.4 µM; for Serum BUN: normal range 4.9–10.4 mM; for Serum ALT: normal range 28–132 U/L; for Serum AST: normal range 59–247 U/L; for Nephrotoxicity: infected treated mice, judged from BUN
Experimental: Following maturation, Schistosoma parasites initiate oviposition, with a proportion of eggs migrating via the circulatory system to hepatic tissues. This ectopic deposition induces granuloma formation that subsequently elicits a cascade of immune-mediated pathologies, ultimately compromising hepatic and renal functions in murine models. To evaluate therapeutic efficacy, retro-orbital blood sampling was performed for comprehensive hepatic function profiling, enabling systematic assessment of pharmacological impacts on schistosomiasis-associated organ damage.
as §2, with “calculated: […]” for “calculated:”

[6] = Acute oral toxicity; type: in vivo; conditions: ICR, mouse, in vivo, po, single oral dose, healthy ICR mice
Experimental: (§3) ICR mice (n = 10/group), aged 6 to 8 weeks, received a single oral dose of compounds 5, 18, and 41 (732–2,234 mg/kg). LD50 values were determined by Probit analysis (SPSS 26.0).

[7] = tested on: healthy mice; test: Acute oral toxicity; type: in vivo; conditions: single oral dose, healthy ICR mice
Experimental: as §3

[8] = tested on: adult S. japonicum worms; test: SEM examination in vitro of tegumental damage; type: cell-based, Schistosoma japonicum; conditions: 100 μM
Experimental: Adult S. japonicum worms (male/female) underwent standardized fixation after in vitro exposure to compounds 5, 18, and 41 over a period of 12 h. First, the samples were immersed in 2.5% glutaraldehyde (prepared with 40 mL 0.2 M phosphate-buffered saline [PBS, pH 7.4], 5 mL 50% glutaraldehyde stock, and 55 mL ultrapure water) at 4°C for 24 h. After triple washes in PBS for 5 min each, worms were rinsed with deionized water for 10 min. The next dehydration sequence included ethanol gradient (50%, 70%, 80%, 90%, 100%; 5 min/step) and tert-butanol gradient (50%, 70%, 90%, 100%; 10 min/step). The worms were freeze-dried, directly sputter-covered with a thin gold layer using a Sputter Coater, and imaged using a scanning electron microscope (Quanta 450).

[9] = 24 h, read-out: Mortality (%) 24 h, 100 μM, 24 h, adult worms in vitro
[10] = 36 h, read-out: Mortality (%) 36 h, 100 μM, 36 h, adult worms in vitro
[11] = 48 h, read-out: Mortality (%) 48 h, 100 μM, 48 h, adult worms in vitro
[12] = 72 h, read-out: Mortality (%) 72 h, 100 μM, 72 h, adult worms in vitro
[13] = infected mice treated in adult stage
[14] = infected mice treated in juvenile stage
[15] = Homo sapiens, MCF7, 48 h incubation
[16] = Homo sapiens, HepG2, 48 h incubation

| Structure (SMILES) | mortality at 100 µM [3, 9] | mortality at 100 µM [3, 10] | mortality at 100 µM [3, 11] | LC50 ([3]; 72 h) | mortality at 100 µM [3, 12] | Morphology of worms after treatment in vivo, adult stage [4] | Worm burden reduction (WBR), Adult [4] | Number of worms, Adult [4] | Morphology of worms after treatment in vivo, juvenile stage [4] | Worm burden reduction (WBR), Juvenile [4] | Number of worms, Juvenile [4] | Hepatic egg burden, adult-stage treatment [4] | Hepatic egg burden, juvenile-stage treatment [4] | Serum GGT [5, 13] | Serum TBIL [5, 13] | Serum BUN [5, 13] | Serum ALT [5, 13] | Serum AST [5, 13] | Serum GGT [5, 14] | Serum TBIL [5, 14] | also measured |
| --- | --- | --- | --- | --- | --- | --- | --- | --- | --- | --- | --- | --- | --- | --- | --- | --- | --- | --- | --- | --- | --- |
| N.N.[Cl][Pt][Cl] [Cisplatin, reference compound] | – | – | – | – | – | – | – | – | – | – | – | – | – | – | – | – | – | – | – | – | IC50 ([1]; 48 h incubation): 1.17 ± 0.13 µM; IC50 ([2]; 48 h incubation): 3.51 ± 0.14 µM |
| CN(NC(=O)c1ccc(Br)cc1)c1ccc(Cl)c(Cl)c1 [Compound 18] | 10% | 50% | 80% | 83 ± 1.9 µM | > 90% | making the males thicker and shorter | 20% | 35 | marked stunting of male schistosomes | 40% | 24 | comparable egg burdens to untreated controls | significantly reduced egg burdens | 6.73 ± 9.70 U/L | 18.73 ± 6.05 µM | 8.68 ± 1.22 mM | 322.33 ± 239.58 U/L | 783.67 ± 457.47 U/L | 0.93 ± 0.81 U/L | 2.98 ± 1.03 µM | Mortality (%) 72 h ([3]; 100 μM, 72 h, adult worms in vitro): 100%; Serum BUN [5, 14]: 12.53 ± 1.31 mM; Serum ALT [5, 14]: 546.00 ± 82.15 U/L; Serum AST [5, 14]: 673.67 ± 153.58 U/L; Nephrotoxicity [5]: transient nephrotoxicity; LD50 [6]: 1400 mg/kg; LD50 [7]: >2,000 mg/kg; LogLD50 [7]: >3.30; IC50 [1, 15]: 40.9 ± 2.82 µM; IC50 [2, 16]: 22.6 ± 1.48 µM |
| CN(NC(=O)c1ccc(Br)cc1)c1ccc(C(F)(F)F)c(Cl)c1 [Compound 41] | 35% | 70% | 80% | 61.4 ± 1.8 µM | 100% | making the males thicker and shorter | 30% | 31 | marked stunting of male schistosomes | 30% | 28 | comparable egg burdens to untreated controls | – | 0.87 ± 0.32 U/L | 7.95 ± 2.11 µM | 7.79 ± 2.11 mM | 274.67 ± 186.53 U/L | 453.33 ± 217.99 U/L | 1.60 ± 0.17 U/L | 3.61 ± 1.39 µM | Serum BUN [5, 14]: 6.18 ± 4.85 mM; Serum ALT [5, 14]: 364.00 ± 329.78 U/L; Serum AST [5, 14]: 557.67 ± 630.32 U/L; Nephrotoxicity [5]: without observable nephrotoxicity; LD50 [6]: 1400 mg/kg; LD50 [7]: >2,000 mg/kg; LogLD50 [7]: >3.30; IC50 [1, 15]: 39.2 ± 3.53 µM; IC50 [2, 16]: 20.7 ± 1.36 µM |
| O=C(C1CCCCC1)N1CC(=O)N2CCc3ccccc3C2C1 (centres unmarked) [PZQ, praziquantel, reference compound] | – | – | – | 43.8 ± 8.26 µM | – | – | 100% | 0 | no significant tegumental alterations compared to negative controls | 0% | 39 | significantly reduced both ovum dimensions and egg counts | without statistically significant ovicidal efficacy | – | – | – | – | – | – | – | mortality at 100 µM ([3]; 24 h, read-out: Mortality (%) 24 h): 100%; mortality at 100 µM ([3]; 36 h, read-out: Mortality (%) 36 h): 100%; mortality at 100 µM ([3]; 48 h, read-out: Mortality (%) 48 h): 100%; mortality at 100 µM ([3]; 72 h, read-out: Mortality (%) 72 h): 100%; Tegumental damage (SEM), female adult worms ([8]; female worms): multifocal vesiculation, ulcerative lesions penetrating the basal lamina, and progressive tegumental corrugation; Tegumental damage (SEM), male adult worms ([8]; male worms): extensive tegumental desquamation, complete muscular layer exposure with striation disruption, and ventral sucker collapse |
